Residues, ends and D or L forms follow the SMILES beside them.
What was measured:
[1] = Body weight measurements of the mice; assay type: in vivo, mouse; settings: APP/PS1, HFD and Adipo−/− mice vs Veh-treated, 5 μg/g, i.p., alternating days for 45 days, n = 13/group
Description: We monitored and weighed the mice three times per week to examine the effect of Os-pep dosage regimen (5 µg/g, i.p., on alternating days for 45 days) on the animals’ body weights. At the completion of the treatment, we calculated the average change in the body weight of the mice. At the completion of the treatments and behavioral experiments, blood samples were collected by cardiac puncture of the right atrium. The serum was collected from whole blood by centrifugation (3000 rpm for 10 min) at room temperature and was stored at -20 °C until it was processed for biochemical analyses by SCL Labs (Seoul Medical Science Institute) to evaluate various metabolic parameters, e.g., glucose (Glu), free fatty acids (FFA), total cholesterol (TC), triglycerides (TG), high density lipoprotein (HDL) and low density lipoprotein (LDL) levels.

[2] = test system: Synap and PSD95; assay: Synap and PSD95 in APPswe/ind-overexpressing SH-SY5Y cells, immunoblot; assay type: cell-based, human; settings: Os-pep 10 μM
Description: Human neuroblastoma SH-SY5Y cells were seeded (in 6-well culture plates for immunoblotting and in chamber slides for immunofluorescence) in DMEM (Dulbecco’s modified Eagle medium) containing 10% fetal bovine serum (FBS) and 1% antibiotics (penicillin-streptomycin) and incubated at 37 °C in humidified air containing 5% CO2. Once the cells reached 70–80% confluence, the cells were transfected using the pCAX vector containing the APPswe/ind gene using Lipofectamine 3000 (Life Technologies) according to the provider’s protocols. AdipoR1 siRNA (h) (SC-60123) and AMPK siRNA (h) (SC-45312) (Santa Cruz Biotechnology, Inc.) were used at a concentration of 10 μM per transfection and expressed for 72 h according to the manufacturer’s protocol (Santa Cruz Biotechnology, Inc.). A negative siRNA (Ambion, Thermo Fisher Scientific) was used as a control. Seventy-two hours after the transfections, the cells were exposed to Os-pep (10 μM) for 12 h and then subjected to immunoblotting and immunofluorescence analyses.
Human neuroblastoma SH-SY5Y cells were treated with 1 µM of insulin for 48 h to produce intrinsic insulin-resistant human neuroblastoma (SH-SY5YIR) cells. […]

[3] = test system: spatial working memory; assay: Y-maze test; assay type: in vivo, mouse; settings: AβO-injected, APP/PS1 and Adipo−/− mice, n = 13/group
Description: To evaluate the learning and memory functions of the mice, we performed the Morris water maze (MWM) and Y-maze tests. After completion of the Os-pep dosage regimen, behavioral studies were performed on AβO-injected, AβO-injected and scramble and functional AdipoR1 shRNA-treated, APP/PS1 and Adipo^−/− mice (n = 13/group) using the MWM and Y-maze tests. […] The mice were randomly selected, and the operators were unaware of the genotype and treatment details for the behavioral study. The MWM and Y-maze tests were performed as previously described.

[4] = test system: AdipoR1/p-AMPK signaling; assay: AdipoR1/p-AMPK signaling in mouse brain (immunoblot); assay type: in vivo; settings: 5 μg/g, i.p., alternating days for 45 days
Description: Os-pep was dissolved in double-deionized distilled water and then prepared in normal saline to obtain the final administered concentration. The AβO, APP/PS1, Adipo^−/− and WT mice were injected i.p. with Os-pep at a dosage of 5 μg/g on alternating days for 45 days. WT, Veh-injected transgenic-APP/PS1 and Adipo^−/− mice were injected with the same volume of double-deionized water and normal saline. The WT control and sham mice as well as the Veh-injected AβO, APP/PS1, Adipo^−/− and HFD mice received the same volume of double-deionized distilled water or normal saline.
(§1) The protein concentrations of the homogenates of mouse brain tissue and cell lysates in vitro were measured using a Bio-Rad protein assay kit (Bio-Rad Laboratories, Hercules, CA), and immunoblotting was performed as we previously described, using primary antibodies (detailed information described in the supplementary Table 1). Western blotting membranes have been cut prior to original western blot images and original western blot images are available at supplementary material.

[5] = test system: activated caspase-3 and cleaved PARP-1; assay: Apoptotic and neurodegenerative markers in APP/PS1 mouse brain, immunoblot; assay type: in vivo; settings: APP/PS1 mice, 5 μg/g, i.p., alternating days for 45 days, n = 8/group
Description: as §1

## C[C@@H](O)[C@H](NC(=O)[C@@H]1CCCN1C(=O)CNC(=O)[C@H](CS)NC(=O)[C@@H]1CCCN1C(=O)CNC(=O)[C@H](CCC(N)=O)NC(=O)[C@@H](NC(=O)[C@@H](N)CS)[C@@H](C)O)C(=O)O [Os-pep] (H-CTQGPCGPT-OH; N-terminus and C-terminus assumed)
[1]
  fold-increase in body weight: smaller fold-increase in the body weight
[2]; APPswe/ind-overexpressing SH-SY5Y cells exposed to AdipoR1 siRNA
  Synap and PSD95 expression with AdipoR1 siRNA: did not restore or increase
[2]; APPswe/ind-overexpressing SH-SY5Y cells
  Synap and PSD95 expression: restored and significantly increased
[3]
  percentage of spontaneous alternation behaviors: significantly increased
[4]; vs AβO-injected mice without Os-pep
  AdipoR1/p-AMPK signaling, AβO-injected mice: significantly increased AdipoR1/p-AMPK signaling
[4]; vs Veh-treated APP/PS1
  AdipoR1/p-AMPK signaling, APP/PS1 mice: remarkably increased AdipoR1/p-AMPK signaling
[4]; vs group without Os-pep
  AdipoR1/AMPK levels, Adipo−/− mice: significantly increased AdipoR1/AMPK levels
[5]
  activated caspase-3 and cleaved PARP-1 levels: significantly decreased

From paper PMC8042910, “Adiponectin-mimetic novel nonapeptide rescues aberrant neuronal metabolic-associated memory deficits in Alzheimer’s disease” (Molecular Neurodegeneration, 2021)
